Experimental data published in PMC6085350, “Small molecule inhibitors of RAS-effector protein interactions derived using an intracellular antibody fragment” (Nature Communications, 2018).

Experiments:
KRAS^G12V-GppNHp = target: T1, KRAS^G12V-GppNHp (Homo sapiens, UniProt P01116, G12V); test: SPR binding to KRAS G12V-GppNHp; conditions: 100 μM, run in triplicate
T1 construct: made in house; host or cells: E. coli (pGEX-2T; strain named only for the HRAS plasmids)
Experimental: A BIAcore T100 (GE Healthcare) was used to screen the fragment library for RAS binders. A polyclonal goat anti-GST antibody (GE Healthcare) was immobilized on a CM5 sensor chip (GE Healthcare) by the amine coupling method. To immobilize the antibody on CM5 chip, the chip was first activated by injecting 100 µl mixture of 0.2 M EDC (N-ethyl-N-(dimethylaminopropyl) carbodiimide hydrochloride) and 0.05 M NHS (N-hydroxysuccinimide) at 10 µl/min flow rate. Furthermore, 100 µg/ml anti-GST antibody in 10 mM sodium acetate, pH 5.0 was injected at 5 µl/min for 900 s and immobilized until 20,000 ~ 25,000 RU. After immobilization the chip was immediately inactivated by injecting 1 M ethanolamine, pH 8.5 at 10 µl/min for 600 s. The chip was kept running in the HBS buffer (GE Healthcare) comprising 10 mM HEPES, pH 8.0, 150 mM NaCl. Of all, 5 µg/ml recombinant GST, GST-HRAS^G12V-GTPγS or GST-HRAS^G12V-GDP proteins were injected into flow cell Fc4, Fc2 and Fc3, respectively for trapping through the immobilized anti-GST antibody. The GST-HRAS^G12V-GTPγS, GST-KRAS^G12V-GppNHpp, or GST-HRAS^G12V-GDP proteins were injected at 5 µl/min for 900 s and usually reached approximately 2000–2500 RU. The GST was injected at same flow rate until about 1200–1350 RU which is 0.54 times less than the GST-HRAS^G12V-GTPγS or GST-HRAS-GDP capture amounts, taking into consideration relative molecular weights (GST, 26KDa, GST-RAS, 48KDa, respectively). Before fragment library screening, the running buffer was replaced by 20 mM Tris, pH 8, 150 mM NaCl, 5 mM MgCl2, 5% DMSO. DMSO solvent correction curves were generated by injecting the running buffers with serial concentrations of DMSO ranging from 4.5 to 6%. […] The individual compounds were injected at 30 µl for 60 s at 30 µl/min flow rate over flow cells Fc1, Fc2, Fc3 and Fc4. The captured GST and GST-RAS were removed from the chip by rinsing with 40 µl 10 mM glycine-HCl, pH 2.1 at 20 µl/min flow rate after every 48 compounds sequential injection. The chip was regenerated by injecting new GST and GST-RAS proteins as described above.

HRAS^G12V-GppNHp = target: T2, HRAS^G12V-GppNHp (Homo sapiens, UniProt P01112, G12V); test: SPR binding to HRAS G12V-GppNHp
T2 construct: expression of HRAS (1-166) HRAS^G12V or KRAS^G12V cDNA cloned into the pGEX-2T vector; made in house; host or cells: E. coli C41(DE3)
T2 sequence (P01112 1-166 G12V): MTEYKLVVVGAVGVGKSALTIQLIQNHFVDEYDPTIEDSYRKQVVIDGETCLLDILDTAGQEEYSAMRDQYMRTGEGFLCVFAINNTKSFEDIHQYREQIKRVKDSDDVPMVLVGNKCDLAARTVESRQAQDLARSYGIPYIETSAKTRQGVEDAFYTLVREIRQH
Experimental: A BIAcore T100 (GE Healthcare) was used to screen the fragment library for RAS binders. A polyclonal goat anti-GST antibody (GE Healthcare) was immobilized on a CM5 sensor chip (GE Healthcare) by the amine coupling method. To immobilize the antibody on CM5 chip, the chip was first activated by injecting 100 µl mixture of 0.2 M EDC (N-ethyl-N-(dimethylaminopropyl) carbodiimide hydrochloride) and 0.05 M NHS (N-hydroxysuccinimide) at 10 µl/min flow rate. Furthermore, 100 µg/ml anti-GST antibody in 10 mM sodium acetate, pH 5.0 was injected at 5 µl/min for 900 s and immobilized until 20,000 ~ 25,000 RU. After immobilization the chip was immediately inactivated by injecting 1 M ethanolamine, pH 8.5 at 10 µl/min for 600 s. The chip was kept running in the HBS buffer (GE Healthcare) comprising 10 mM HEPES, […], 150 mM NaCl. […] Before fragment library screening, the running buffer was replaced by 20 mM Tris, pH 8, 150 mM NaCl, 5 mM MgCl2, 5% DMSO. DMSO solvent correction curves were generated by injecting the running buffers with serial concentrations of DMSO ranging from 4.5 to 6%. For fragment screening, each compound was diluted at 200 µM or 1 mM, 5% DMSO in 20 mM Tris, pH 8, 150 mM NaCl, 5 mM MgCl2 buffer in a polypropylene 96 well plate. The individual compounds were injected at 30 µl for 60 s at 30 µl/min flow rate over flow cells Fc1, Fc2, Fc3 and Fc4. […]

RAS-effector PPI = test: RAS biosensor BRET assay (partners not specified); format: cell-based, human
Experimental: The BRET assay was carried out as described elsewhere. A total of 650,000 HEK293T were seeded in each well of a six well plate. Approximately, 24 h later, cells were transfected with an appropriated BRET-based RAS biosensor (i.e. RAS-effector) using Lipofectamine 2000 transfection reagent (Thermo-Fisher). Cells were detached 24 h later and washed with PBS and seeded in a white 96 well plate (clear bottom, PerkinElmer, cat#6005181) in OptiMEM no phenol red medium (Life Technologies) complemented with 4% FBS. Cells were left for 4 h at 37 °C before adding compounds. […] The final concentrations in the cells were 0, 5, 10 and 20 μM (therefore the intermediate 10X concentrations were 0, 50, 100 and 200 μM. Furthermore, 10 μl of 10X compounds were added in each well of the 96 well plate to 0, 5, 10 and 20 μM final concentrations (with final 0.2% DMSO each). Quadruplicates were performed for each point. Cells were left for an additional 20 h at 37 °C before the BRET2 signal reading directly after addition of Coelenterazine 400a substrate (10 μM final) to cells (Cayman Chemicals, cat#16157). BRET2 reading was carried out on an Envision instrument (2103 Multilabel Reader, PerkinElmer) with the BRET2 Dual Emission optical module (515 nm ± 30 and 410 nm ± 80; PerkinElmer).

PI3KC2 = test: Kinase panel (KinaseProfiler), second PI3KC2 line; format: biochemical, human; conditions: PI3KC2 (second of two lines), 10μM
Experimental: Experiments were performed by Eurofins Pharma Discovery Services. The KinaseProfiler™ assay protocol guide can be downloaded from their website: www.eurofins.com/discoveryservices. The guide contains information on the buffer conditions, substrate and reference inhibitor blank used for each kinase.
Supplementary Table 3. Assessment of potential interaction of Abd-7 with a human kinase
Kinase % kinase activity in
A panel of 14 Kinases (relevant to the RAS pathway) has been screened against Abd-7
(10μM) and the kinase activity was measured. […] of activity was observe for all
function of the selected and RAS relevant kinase proteins.

T1 sequence (P01116 1-188 isoform P01116-2 G12V): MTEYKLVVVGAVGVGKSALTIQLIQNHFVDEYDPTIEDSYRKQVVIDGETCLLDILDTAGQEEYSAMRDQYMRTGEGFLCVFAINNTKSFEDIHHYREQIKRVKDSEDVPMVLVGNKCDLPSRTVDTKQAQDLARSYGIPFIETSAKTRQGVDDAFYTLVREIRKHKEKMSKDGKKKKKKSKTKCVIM

**Q.** Which “binding to KRAS^G12V-GppNHp (SPR)” value (KRAS^G12V-GppNHp) does the source give for `O=C(NCC1COc2ccccc2O1)c1ccco1` (stereo not shown) [Abd-2] here?
**A.** The value was “binds”.

**Q.** What about the “binding to^G12V-GppNHp (SPR)” value (HRAS^G12V-GppNHp) of the same compound?
**A.** Its value is “binds”.

**Q.** And the “activity in the RAS biosensor BRET assay” value (RAS-effector PPI)?
**A.** The value was “do not show activity”.

**Q.** Which “% kinase activity in the presence of Abd-7” value (PI3KC2) does the source give for `COc1nc(-c2cccc3c2OCCO3)ccc1Nc1ccc(CN(C)C)cc1` [Abd-7] here?
**A.** The value was 108%.
